Laboratory results reported in patent US20180318473A1, “DRUGS WITH IMPROVED HYDROPHOBICITY FOR INCORPORATION IN MEDICAL DEVICES” (Abraxis BioScience, LLC, priority 2005, published 2018).
Several values for one entry are separate records, joined by “and”; a condition that tells them apart may be missing. Equal values may be shown once. Read-outs that look alike come from different tables or passages of the source.

What was measured:
albumin = albumin (Homo sapiens, UniProt P02768); test: Binding of compounds to albumin
MX-1 mammary tumor cells [1] = test: Cytotoxic activity on MX-1 mammary tumor cells in culture; conditions: for IC50: read-out: Cytotoxicity on MX-1, IC50
[2] = Hydrophobicity by relative elution time from a C18 HPLC column; format: physicochemical; conditions: for HPLC retention time (min) Condition 1: acetonitrile / ammonium acetate buffer pH 6.4 with 5 mM TBAP gradient, 0.8 mL/min; for HPLC retention time (min) Condition 1 / HPLC retention time (min) Condition 2: column temperature 35° C.; for HPLC retention time (min) Condition 2: acetonitrile/water gradient 50:50 to 90:10, 1 mL/min; for HPLC retention time (min) Condition 2, column temperature 70° C.: acetonitrile/water gradient, 1 mL/min, **column temperature was set at 70° C.
Excerpt: To increase the penetration and retention of a drug released from a device such as a stent into the vascular wall or wall of other vessel or tissue, several drugs were modified to increase their hydrophobicity. […] […] The longer the elution time, the more hydrophobic the compound.

MX-1 mammary tumor cells [3] = test system: MX-1 mammary tumor cells
[4] = smaller number indicates greater binding affinity, read-out: Albumin Binding, KD
[5] = MX-1 mammary tumor cells in culture, drug itself

Chain of albumin (P02768 25-609, species assumed): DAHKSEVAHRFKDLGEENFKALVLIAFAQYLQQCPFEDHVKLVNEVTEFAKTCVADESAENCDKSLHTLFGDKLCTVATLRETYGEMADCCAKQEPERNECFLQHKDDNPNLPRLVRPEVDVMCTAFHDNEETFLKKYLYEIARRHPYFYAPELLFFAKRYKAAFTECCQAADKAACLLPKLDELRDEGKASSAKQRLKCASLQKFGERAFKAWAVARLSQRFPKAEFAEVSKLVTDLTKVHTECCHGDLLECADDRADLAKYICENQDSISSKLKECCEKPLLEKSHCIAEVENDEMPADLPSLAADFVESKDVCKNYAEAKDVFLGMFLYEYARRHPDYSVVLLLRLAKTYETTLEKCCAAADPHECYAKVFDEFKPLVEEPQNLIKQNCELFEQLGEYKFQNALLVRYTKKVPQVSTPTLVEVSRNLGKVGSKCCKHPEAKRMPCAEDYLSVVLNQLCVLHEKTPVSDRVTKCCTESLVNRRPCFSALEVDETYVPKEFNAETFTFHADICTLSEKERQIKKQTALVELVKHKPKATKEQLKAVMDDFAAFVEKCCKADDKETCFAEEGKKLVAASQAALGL

Compound	IC50 (MX-1 mammary tumor cells [1]; [5]) [µM]	HPLC retention time (min) Condition 1 [2] [min]	HPLC retention time (min) Condition 2 [2]	other results
CC(=O)OC1C(=O)C2(C)C(O)CC3OCC3(OC(C)=O)C2C(OC(=O)c2ccccc2)C2(O)CC(OC(=O)C(OC(=O)c3ccccc3)C(NC(=O)c3ccccc3)c3ccccc3)C(C)=C1C2(C)C (centres unmarked) [Compound 1]	30			Kd (albumin; [4]): 103 µM
CC(=O)OC12COC1CC(O)C1(C)C(=O)C(O)C3=C(C)C(OC(=O)C(OC(=O)c4ccccc4)C(NC(=O)OC(C)(C)C)c4ccccc4)CC(O)(C(OC(=O)c4ccccc4)C21)C3(C)C (centres unmarked) [Compound 2, 2′ BENZOYL DOCETAXEL]				Kd (albumin; [4]): 8.8 µM; IC50 (MX-1 mammary tumor cells [1]): 38 µM
CCc1c2c(nc3ccc(O)cc13)-c1cc3c(c(=O)n1C2)COC(=O)[C@]3(O)CC [Compound 6]	267	7.8	2.2 min	Kd (albumin; [4]): 484 µM
CCC(=O)Oc1ccc2nc3c(cc2c1)Cn1c-3cc2c(c1=O)COC(=O)C2(CC)OC(=O)CC (centres unmarked) [Compound 7]	45	19.8		HPLC retention time (min) Condition 2, column temperature 70° C. [2]: 6.1** min
CCCC(=O)Oc1ccc2nc3c(cc2c1)Cn1c-3cc2c(c1=O)COC(=O)[C@@]2(CC)OC(=O)CCC [Compound 8]	152	21.9		
CCC1(OC(=O)C(C)C)C(=O)OCc2c1cc1n(c2=O)Cc2cc3cc(OC(=O)C(C)C)ccc3nc2-1 (centres unmarked) [Compound 9]	23	22.0		
CCCCCC(=O)Oc1ccc2nc3c(cc2c1)Cn1c-3cc2c(c1=O)COC(=O)[C@@]2(CC)OC(=O)CCCCC [Compound 10, CAMPTOTHECIN 10,20-DI O HEXONATE]	8	25.3		
CCC1(OC(=O)CNC(=O)OC(C)(C)C)C(=O)OCc2c1cc1n(c2=O)Cc2cc3cc(OC(=O)CNC(=O)OC(C)(C)C)ccc3nc2-1 (centres unmarked) [Compound 11]	221	20.9		
CCC1(OC(=O)COC)C(=O)OCc2c1cc1n(c2=O)Cc2cc3cc(OC(=O)COC)ccc3nc2-1 (centres unmarked) [Compound 12]	372	14.1		
CCC1(OC(=O)CN)C(=O)OCc2c1cc1n(c2=O)Cc2cc3cc(OC(=O)CN)ccc3nc2-1 (centres unmarked) [Compound 13]	242	6.1		
CCC1(OC(=O)c2ccccc2)C(=O)OCc2c1cc1n(c2=O)Cc2cc3cc(OC(=O)c4ccccc4)ccc3nc2-1 (centres unmarked) [Compound 14]	740	22.9		
CCC(=O)Oc1ccc2nc3c(c(CC)c2c1)Cn1c-3cc2c(c1=O)COC(=O)[C@@]2(CC)OC(=O)CC [Compound 15]	28	20.8		HPLC retention time (min) Condition 2, column temperature 70° C. [2]: 9.3** min
CCCCCC(=O)Oc1ccc2nc3c(cc2c1)Cn1c-3cc2c(c1=O)COC(=O)C2(CC)OC(=O)CCCCC (centres unmarked) [Compound 16]	4			
C=CCNC1=C2C[C@@H](C)C[C@H](OC)[C@H](O)[C@@H](C)/C=C(\C)[C@H](OC(N)=O)[C@@H](OC)/C=C\C=C(/C)C(=O)NC(=CC1=O)C2=O [Compound 17AAG, 17AAG, reference compound]	3		14.9 min	
CCCCCCCCCC(=O)Oc1ccc2nc3c(c(CC)c2c1)Cn1c-3cc2c(c1=O)COC(=O)[C@@]2(CC)OC(=O)CCCCCCCCC [Compound 17]	2000		31.2 min	
CCCCCCCCCCCCCC(=O)Oc1ccc2nc3c(c(CC)c2c1)Cn1c-3cc2c(c1=O)COC(=O)[C@@]2(CC)OC(=O)CCCCCCCCCCCCC [Compound 18]			31.2 min	Cytotoxicity on MX-1, IC50 (MX-1 mammary tumor cells [1]; [5]): Inactive

Compound	IC50 (MX-1 mammary tumor cells [1]; [5]) [µM]	HPLC retention time (min) Condition 1 [2] [min]	HPLC retention time (min) Condition 2 [2]	other results
CCCCCCCCCCCC(=O)Oc1ccc2nc3c(c(CC)c2c1)Cn1c-3cc2c(c1=O)COC(=O)[C@@]2(CC)OC(=O)CCCCCCCCCCC [Compound 19]			31.2 min	Cytotoxicity on MX-1, IC50 (MX-1 mammary tumor cells [1]; [5]): Inactive
CCCCCCCCCCCCCCCCCC(=O)Oc1ccc2nc3c(c(CC)c2c1)Cn1c-3cc2c(c1=O)COC(=O)[C@@]2(CC)OC(=O)CCCCCCCCCCCCCCCCC [Compound 20]			30.6 min	Cytotoxicity on MX-1, IC50 (MX-1 mammary tumor cells [1]; [5]): Inactive
CCc1c2c(nc3ccc(OC(=O)CCCC(C)CC)cc13)-c1cc3c(c(=O)n1C2)COC(=O)[C@@]3(CC)OC(=O)CCCC(C)CC (some centres unmarked) [Compound 21]	295		40.2 min	
CCCCCCCCCCCCCCCC(=O)Oc1ccc2nc3c(cc2c1)Cn1c-3cc2c(c1=O)COC(=O)C2(CC)OC(=O)CCCCCCCCCCCCCCC (centres unmarked) [Compound 22]			30.5 min	Cytotoxicity on MX-1, IC50 (MX-1 mammary tumor cells [1]; [5]): Inactive
COc1cc2c(c(OC)c1OC)-c1ccc(SC)c(=O)cc1[C@@H](NC(=O)CCNC(=O)N[C@H]1CCc3cc(OC)c(OC)c(OC)c3-c3ccc(SC)c(=O)cc31)CC2 [Compound 24]				Kd (albumin): 109 µM; IC50 (MX-1 mammary tumor cells [1]): 37 µM
COc1cc2c(c(OC)c1OC)-c1ccc(SC)c(=O)cc1[C@@H](NC(=O)CCCCCCCCC(=O)N[C@H]1CCc3cc(OC)c(OC)c(OC)c3-c3ccc(SC)c(=O)cc31)CC2 [Compound 25]				Kd (albumin): 30 µM; IC50 (MX-1 mammary tumor cells [1]): 155 µM
COc1cc2c(c(OC)c1OC)-c1ccc(SC)c(=O)cc1[C@@H](NC(=O)c1cncc(C(=O)N[C@H]3CCc4cc(OC)c(OC)c(OC)c4-c4ccc(SC)c(=O)cc43)c1)CC2 [Compound 26]				Kd (albumin): 28 µM; IC50 (MX-1 mammary tumor cells [1]): 361 µM
COc1cc2c(c(OC)c1OC)-c1ccc(SC)c(=O)cc1[C@@H](NC(=O)C1CCCC(C(=O)N[C@H]3CCc4cc(OC)c(OC)c(OC)c4-c4ccc(SC)c(=O)cc43)C1)CC2 (some centres unmarked) [Compound 27]				Kd (albumin): 52 µM
COC1C=CC=C(C)C(=O)NC2=CC(=O)C(N3CC3C)=C(CC(C)CC(OC)C(O)C(C)C=C(C)C1OC(N)=O)C2=O (centres unmarked) [Compound 30, 17-METHYLAZIRIDINYL-17-DEMETHOXYGELDANAMYCIN]			11.1 min and 11.6 min	IC50 (MX-1 mammary tumor cells [3]): 0.3 µM
CC[C@@]1(O)C(=O)OCc2c1cc1n(c2=O)Cc2cc3cc(O)ccc3nc2-1 [Compound 32]		6.1	1.9 min	Kd (albumin): 1200 µM; IC50 (MX-1 mammary tumor cells [1]): 13 µM
CC(=O)O[C@@]12CO[C@@H]1C[C@H](O)[C@@]1(C)C(=O)[C@H](O)C3=C(C)[C@@H](OC(=O)[C@H](O)[C@@H](NC(=O)OC(C)(C)C)c4ccccc4)C[C@@](O)([C@@H](OC(=O)c4ccccc4)[C@H]21)C3(C)C [Docetaxel, reference compound]			9.0 min	Kd (albumin; [4]): 5.45 µM
COC1=C2C[C@@H](C)C[C@H](OC)[C@H](O)[C@@H](C)/C=C(\C)[C@H](OC(N)=O)[C@@H](OC)/C=C\C=C(/C)C(=O)NC(=CC1=O)C2=O [Geldanamycin, reference compound]	0.5		10.8 min	
CC(=O)O[C@H]1C(=O)[C@@]2(C)[C@H]([C@H](OC(=O)c3ccccc3)[C@]3(O)C[C@H](OC(=O)[C@H](O)[C@@H](NC(=O)c4ccccc4)c4ccccc4)C(C)=C1C3(C)C)[C@]1(OC(C)=O)CO[C@@H]1C[C@@H]2O [Paclitaxel, reference compound]			10.5 min	Kd (albumin; [4]): 39.8 µM
CO[C@H]1C[C@@H]2CC[C@@H](C)[C@@](O)(O2)C(=O)C(=O)N2CCCC[C@H]2C(=O)O[C@H]([C@H](C)C[C@@H]2CC[C@@H](O)[C@H](OC)C2)CC(=O)[C@H](C)/C=C(\C)[C@@H](O)[C@@H](OC)C(=O)[C@H](C)C[C@H](C)/C=C/C=C/C=C/1C [Rapamycin, reference compound]	27			Kd (albumin; [4]): 102 µM
Benzoyl rapamycin [Compound 23]				HPLC retention time (min) Condition 2, column temperature 70° C. [2]: 32.6** min
